From US7132271B2, “Methods for enhancing the production of viral vaccines in cell culture” (priority 1995, dated 2006)

Tested on: human PKR
Test: Western blot analysis of PKR protein in U937 transfectants
Format: cell-based
Settings: U937-neo cells
Experimental: Cell extracts (100 μg) were separated on a 10% SDS-polyacrylamide gel and electrotransferred onto nitrocellulose membrane. The membranes were incubated with anti-PKR monoclonal antibody (Meurs et al. Cell 1990) at 1:1000 in BLOTTO (5% nonfat dry milk, 0.05% Tween-20 in Tris-buffered saline). Final detection of PKR was facilitated by probing with a secondary horseradish peroxidase-conjugated goat anti-mouse antibody (Santa Cruz Biotech) and using a chemiluminesence method (Amersham ECL).

Substance: IFN-γ: recombinant human IFN-γ, Amgen
- PKR protein level following treatment with IFN: increased
